# Experimental data: patent US20100197610A1, “FRUCTOSE 1, 6 BISPHOSPHATE - A NOVEL ANTICONVULSANT DRUG” (Baylor College of Medicine, priority 2007, published 2010)
# Assay: FDP levels in blood, brain and peripheral tissues after intraperitoneal administration
# Assay type: in vivo, Sprague-Dawley rats
# Protocol: Adult male Sprague-Dawley rats (170-220 g) were used to determine the kinetics of fructose-1,6-diphosphate (FDP). Levels of FDP were determined in blood and tissue samples as previously described (Gerhard, Methods of Enzymatic Analysis, Vol VI, Ed. Bergmeyer, H U, Academic Press NY, pp. 342-350). All chemicals and enzymes for the assay were obtained from Sigma Chemical Co (St. Louis Mo.). Animals were administered a single dose of 0.5 g kg-1 FDP (250 mg ml-1 dissolved in 0.1M phosphate buffered saline, pH 7). In vivo studies utilized the dicalcium salt of FDP, which has a purity of ˜70%. […] At the designated time, animals were anesthetized with 1 g kg-1 urethane. After deep anesthesia, whole blood was obtained from a cardiac puncture. One ml of whole blood was added to 5 ml of perchloric acid ([…]) and mixed. After centrifugation at 3,500 rev min-1 for 10 min at 4° C., the supernatant was removed and set aside. The sediment was re-suspended in 1 ml of the perchloric acid solution and 1 ml of distilled water and centrifuged. The resulting supernatant was combined with the first one and the pH was adjusted to 3.5 with potassium carbonate (5 mol l-1). The final volume was brought to 7 ml and the solution was allowed to sit in ice for 15 min. The supernatant was used for determination of FDP levels.
# Immediately after removal of the whole blood sample, the rat was perfused through the heart with ice-cold 0.01M phosphate buffered saline. Tissue samples from liver, kidney, skeletal muscle (from thigh) and intra-abdominal fat were obtained and then the brain was removed and dissected into hippocampus, cerebral cortex, cerebellum and rest of brain. […] All tissue samples were weighed and then homogenized in 5 ml of ice-cold perchloric acid (0.6 mol l-1) as quickly as possible. The homogenates were then treated was described above for whole blood.
# Actual levels of FDP were determined by monitoring absorbance of reduced nicotinamide adenine dinucleotide (NADH) and treating the sample with aldolase (EC 4.1.2.13, 45 units mg-1 diluted 1:27 with distilled water), the enzyme which cleaves FDP into dihydroxyacetone phosphate (DAP) and D-glyceraldehyde 3-phosphate (GAP). DAP and GAP are interconverted by the enzyme triosephosphate isomerase (TIM, EC 5.3.3.1, 5290 units mg-1 diluted 1:120 with distilled water). Glycerol-3-phosphate dehydrogenase (GDH, EC 1.1.1.8, 252 units mg-1 diluted 1:100 with distilled water) catalyzes the reduction of DAP by NADH. For the FDP measurements, 1.5 ml of tetraethyl ammonium buffer (TEA, 0.4 mol l-1, pH 7.6 with EDTA 40 mmol l-1) was added to 1 ml of the sample in a 4 ml cuvette. Then 0.1 ml of 5 mmol l-1 β-NADH, 0.4 ml of distilled water and 0.01 ml of the enzymes TIM and GDH were added and the cuvette inverted to mix the solutions. After 5 min the absorbance was read 3 times at 340 nm, each reading 3 min apart. The average of these readings is the initial absorbance (Ai). This step removes any DAP or GAP in the sample and determines the baseline absorbance. Aldolase (0.01 ml) was then added and mixed to cleave FDP into DAP and GAP. Nine minutes after addition of the aldolase, the final absorbance (Af) was determined by 3 readings at 340 nm, each 6 minutes apart. The concentration of FDP in the sample was proportional to the difference in the initial and final absorbance. Two moles of NADH are oxidized for each mole of FDP. Blanks and a FDP standard sample were run in parallel with every assay. Each blank had 1.6 ml of the TEA buffer, 1.4 ml water and the mixture of TIM and GDH. For the positive control, the sample was replaced with 1 ml of a solution containing 200 μg FDP per ml of phosphate buffered saline. The trisodium salt of FDP, with a purity of >98%, was utilized for all of the positive control samples and for the standard curves. Levels of FDP in blood were determined per ml, while levels in tissue samples were determined as a function of tissue weight. […]
compound,measurement,setting,value
"O=C(COP(=O)(O)O)[C@@H](O)[C@H](O)[C@H](O)COP(=O)(O)O [F1,6BP, Fructose-1,6-bisphosphate]",FDP level in the brain at 12 hours vs levels at 1 and 2 hours,0.5 g kg-1 ip,not significantly different
same,time of peak FDP levels in blood,0.5 g kg-1 ip,2 h
same,time of peak FDP levels in the brain,0.5 g kg-1 ip,1 to 2 h
same,FDP levels in blood vs control,"0.5 g kg-1 ip, 1 hour",significant increase
same,FDP level in blood compared to control values,"0.5 g kg-1 ip, 12 hours",significantly elevated
same,FDP level in blood compared to the peak levels at 2 hours,"0.5 g kg-1 ip, 12 hours",significantly decreased
same,"FDP levels in liver, kidney, muscle and fat","0.5 g kg-1 ip, 12 hours",returned to near baseline
same,FDP levels in the brain vs control,"0.5 g kg-1 ip, 36 hours",remained significantly elevated
same,FDP levels in blood,"0.5 g kg-1 ip, by 6 hours",fallen more than halfway back to baseline
same,"increase in FDP at 1 hour, all tissues measured","0.5 g kg-1 ip, liver, kidney, skeletal muscle and fat, n=6",around 0.2 mg g-1
same,"increase in FDP at 1 hour, kidney","0.5 g kg-1 ip, n=6",0.26 mg/g
same,"increase in FDP at 1 hour, liver","0.5 g kg-1 ip, n=6",0.17 mg/g
same,"increase in FDP at 1 hour, muscle","0.5 g kg-1 ip, n=6",0.17 mg/g
same,time at which an increase of FDP levels in blood was first seen,single dose 0.5 g kg-1 ip,30 min
same,time out to which FDP levels in blood remained elevated,single dose 0.5 g kg-1 ip,72 h
